Measured values as given in PMC4038645 (Cancer, 2014).
Like-named read-outs stand apart in the source and are kept apart here. Marks after values point to notes of the source that are not given here.

Columns and labels:
[1] = Plasma pharmacokinetics of sunitinib and N-desethyl sunitinib; type: in vivo, human; settings: for half-life: n=1
[2] = tested on: ABCB1; settings: cited from earlier work
[3] = tested on: ABCG2; settings: cited from earlier work
[4] = tested on: CYP3A4; settings: cited from earlier work
[5] = tested on: solid or hematologic malignancy; experiment: Response assessment after every two cycles; type: in vivo, human; settings: 17 patients evaluable for response
[6] = phase III trial, 50mg/day, cited from earlier work
[7] = human, in vivo, 6 weeks (cycle 1)

Structure (SMILES): CCNCCNC(=O)c1c(C)[nH]c(/C=C2\C(=O)Nc3ccc(F)cc32)c1C [N-desethyl sunitinib]
- decrease in AUC0–24h compared to NNRTI ([1]; human, in vivo): 40%
- decrease in Cmax compared to NNRTI ([1]; human, in vivo): 48%
- increase in AUC0–24h compared to NNRTI ([1]; human, in vivo): 390%
- increase in Cmax compared to NNRTI ([1]; human, in vivo): 410%
- substrate for ABCB1 drug transporter [2]: substrates
- substrate for ABCG2 drug transporter [3]: substrates

Structure (SMILES): O=C1Nc2ccc(Cl)cc2[C@@](C#CC2CC2)(C(F)(F)F)O1 [efavirenz]
- induction of CYP3A4 [4]: known inducer

Structure (SMILES): CCN(CC)CCNC(=O)c1c(C)[nH]c(/C=C2\C(=O)Nc3ccc(F)cc32)c1C [sunitinib, Sunitinib malate]
- correlation between hand-foot syndrome and elevated Cmin,ss ([1]; Mann–Whitney U-test, p=0.013): There was a correlation
- Cmax ([1]; Ritonavir group, sunitinib 37.5 mg/day, Cycle 1 Day 1, mean±SD): 19.9±5.9 (6) ng/mL
- T1/2 ([1]; Ritonavir group, sunitinib 37.5 mg/day, actual values (n=2)): 86.8 h
- AUC(0-t) ([1]; human, in vivo, 37.5 mg/day): 338 ± 99 ng·h/mL
- fraction unbound ([1]; human, in vivo, 37.5 mg/day): 0.067 ± 0.021
- half-life ([1]; human, plasma, oral, 25 mg/day, T1/2, Ritonavir group, sunitinib 25 mg/day): 66 h
- Tmax ([1]; human, plasma, oral, 50 mg/day): 7.5 h
- half-life ([1]; human, plasma, oral, 50 mg/day, T1/2, NNRTI group, sunitinib 50 mg/day): 63.6 h
- objective response to therapy [5]: No patient experienced an objective response
- ALT/AST Elevation All Grade (%) (human, in vivo): 2 (11)
- ALT/AST Elevation ≥G3 (%) (human, in vivo): 0 (0)
- Abdominal Pain All Grade (%) (human, in vivo): 2 (11)
- Abdominal Pain ≥G3 (%) (human, in vivo): 0 (0)
- Anemia All Grade (%) (human, in vivo): 3 (16)
- Anemia ≥G3 (%) (human, in vivo): 1 (5)
- Anorexia ≥G3 (%) (human, in vivo): 0 (0)
- Constipation All Grade (%) (human, in vivo): 2 (11)
- Constipation ≥G3 (%) (human, in vivo): 0 (0)
- Cough ≥G3 (%) (human, in vivo): 0 (0)
- Diarrhea All Grade (%) (human, in vivo): 9 (47)
- Diarrhea ≥G3 (%) (human, in vivo): 1 (5)
- Epistaxis ≥G3 (%) (human, in vivo): 0 (0)
- Fatigue All Grade (%) (human, in vivo): 8 (42)
- Fatigue ≥G3 (%) (human, in vivo): 0 (0)
- Headache All Grade (%) (human, in vivo): 2 (11)
- Headache ≥G3 (%) (human, in vivo): 0 (0)
- Hypertension All Grade (%) (human, in vivo): 4 (21)
- Hypertension ≥G3 (%) (human, in vivo): 0 (0)
- Hypopigmentation All Grade (%) (human, in vivo): 2 (11)
- Hypopigmentation ≥G3 (%) (human, in vivo): 0 (0)
- Mucositis All Grade (%) (human, in vivo): 3 (16)
- Mucositis ≥G3 (%) (human, in vivo): 0 (0)
- Myalgia/Limb Pain All Grade (%) (human, in vivo): 2 (11)
- Myalgia/Limb Pain ≥G3 (%) (human, in vivo): 0 (0)
- Nausea/Vomiting All Grade (%) (human, in vivo): 6 (32)
- Nausea/Vomiting ≥G3 (%) (human, in vivo): 0 (0)
- Neutropenia All Grade (%) (human, in vivo): 10 (53)
- Neutropenia ≥G3 (%) (human, in vivo): 6 (32)
- Rash ≥G3 (%) (human, in vivo): 0 (0)
- Thrombocytopenia All Grade (%) (human, in vivo): 3 (16)
- Thrombocytopenia ≥G3 (%) (human, in vivo): 0 (0)
- Wound Dehiscence All Grade (%) (human, in vivo): 2 (11)
- Wound Dehiscence ≥G3 (%) (human, in vivo): 1 (5)
- ALT/AST Elevation All Grade (%) (human, in vivo, 6 weeks): 2 (11)
- ALT/AST Elevation ≥G3 (%) (human, in vivo, 6 weeks): 0 (0)
- Constipation All Grade (%) (human, in vivo, 6 weeks): 1 (5)
- Constipation ≥G3 (%) (human, in vivo, 6 weeks): 0 (0)
- Diarrhea All Grade (%) (human, in vivo, 6 weeks): 8 (42)
- Diarrhea ≥G3 (%) (human, in vivo, 6 weeks): 0 (0)
- Fatigue All Grade (%) (human, in vivo, 6 weeks): 7 (37)
- Fatigue ≥G3 (%) (human, in vivo, 6 weeks): 0 (0)
- Hypertension All Grade (%) (human, in vivo, 6 weeks): 3 (16)
- Hypertension ≥G3 (%) (human, in vivo, 6 weeks): 0 (0)
- Mucositis All Grade (%) (human, in vivo, 6 weeks): 2 (11)
- Mucositis ≥G3 (%) (human, in vivo, 6 weeks): 0 (0)
- Nausea/Vomiting All Grade (%) (human, in vivo, 6 weeks): 3 (16)
- Nausea/Vomiting ≥G3 (%) (human, in vivo, 6 weeks): 0 (0)
- Anemia All Grade (%) [7]: 2 (11)
- Anemia ≥G3 (%) [7]: 1 (5)
- Neutropenia All Grade (%) [7]: 10 (53)
- Neutropenia ≥G3 (%) [7]: 5 (26)
- Thrombocytopenia All Grade (%) [7]: 2 (11)
- Thrombocytopenia ≥G3 (%) [7]: 0 (0)
- Wound Dehiscence All Grade (%) [7]: 2 (11)
- Wound Dehiscence ≥G3 (%) [7]: 1 (5) ^#
- recommended dose (patients on ritonavir, 4 week on/2 week off schedule): 37.5 mg/day
- MTD (patients on ritonavir, daily, 4 weeks on/2 weeks off): 37.5 mg
- rate of grade 3 or 4 neutropenia ([6]; gastrointestinal stromal tumors): 10%
- rate of grade 3 or 4 neutropenia ([6]; primitive neuroectodermal tumors): 16%
- rate of grade 3 or 4 neutropenia ([6]; renal cell carcinoma): 17%
- substrate for ABCB1 drug transporter [2]: substrates
- substrate for ABCG2 drug transporter [3]: substrates
